Data on 24 compounds can be found in patent US7232912B2, “Indazole compounds, pharmaceutical compositions, and methods for mediating or inhibiting cell proliferation” (Agouron Pharmaceuticals, Inc., priority 2000, dated 2007).

Holding throughout (format): biochemical
The target in one assay is T1, CDK2/cyclin A (Homo sapiens, UniProt P24941).
T1 construct: made in house; host or cells: CDK2: insect cells (baculovirus); cyclin A: E. coli
Briefly: Inhibition of CDK2/Cyclin A Retinoblastoma Kinase Activity. As to conditions: apparent Ki. An outline of the steps:
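Baculovirus-expressed CDK2 complexed with proteolyzed cyclin A, at 150 nM or 5 nM, phosphorylating an Rb fragment with 25 µM [32/33P]ATP in HEPES pH 7.4, 2% DMSO. Reactions run 20 min at 30°C, EDTA-stopped, filter-captured; apparent Ki from competitive or tight-binding competitive fits.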

In a further assay the target is T2, FGFR1 tyrosine kinase (Homo sapiens, UniProt P11362, C488A/C584S/L457V).
T2 construct: the cytosolic domain of FGFR1 tyrosine kinase (amino acids 456–766); made in house; host or cells: Sf9 insect cells (baculovirus)
T2 sequence (P11362 456-766 L457V/C488A/C584S): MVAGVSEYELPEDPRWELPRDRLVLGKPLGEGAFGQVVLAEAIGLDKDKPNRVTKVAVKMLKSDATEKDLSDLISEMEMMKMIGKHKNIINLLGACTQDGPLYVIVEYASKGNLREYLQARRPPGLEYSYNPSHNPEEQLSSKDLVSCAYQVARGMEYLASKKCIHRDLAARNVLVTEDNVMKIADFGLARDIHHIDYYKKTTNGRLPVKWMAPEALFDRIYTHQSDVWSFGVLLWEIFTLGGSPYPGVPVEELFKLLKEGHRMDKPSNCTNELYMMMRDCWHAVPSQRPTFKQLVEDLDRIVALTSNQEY
Briefly: Inhibition of phosphorylated FGF receptor tyrosine kinase activity. As to conditions: for inhibition at 1 µM: read-out: FGF % Inhib. at 1 μM. The method, then: Inhibition of Phosphorylated FGF Receptor and LCK Tyrosine Kinase Activity
Cloning, expression and purification of the cytosolic domain of FGFR1 tyrosine kinase (amino acids 456–766) containing three amino acid substitutions (L457V, C488A, and C584S) were conducted as previously described (Mohammadi, M., Schlessinger, J., & Hubbard, S. R. (1996) Cell 86, 577–587). This domain was expressed in Sf9 insect cells using a baculovirus expression vector, and protein was purified using conventional techniques. The LCK tyrosine kinase was expressed in insect cells as an N-terminal deletion starting from amino acid 223 to the end of the protein at amino acid 509. The N-terminus of the protein also had two amino acid substitutions, P223M and C 224D. Kinases were purified using conventional chromatographic methods.
Tyrosine kinase activity was measured using a coupled, continuous spectrophotometric assay, in which production of phosphorylated poly(Glu, Tyr; 4:1) substrate and ADP is coupled to the pyruvate kinase-catalyzed transfer of a phosphate from phosphoenolpyruvate to ADP, with generation of pyruvate and regeneration of ATP. Pyruvate production is in turn coupled to the lactate dehydrogenase-catalyzed reduction of pyruvate to form lactate, with concomitant conversion of NADH to NAD+. Loss of NADH is monitored by measuring absorbance at 340 nm (see e.g., Technikova-Dobrova et al., “Spectrophotometric determination of functional characteristics of protein kinases with coupled enzymatic assay,” FEBS Letters, vol. 292 (1991), pp. 69–72). Enzyme activity was measured in the presence of 200 mM HEPES (pH 7.5), 2 mM phosphoenolpyruvate, 0.3 mM NADH, 20 mM MgCl2, 100 μM ATP, 5 mM DTT, 5.1 or 25 mM poly (Glu,Tyr) 4:1 for P-FGF or P-LCK assays, respectively, and 15 units/mL each of pyruvate kinase and lactate dehydrogenase. Phosphorylated FGF receptor kinase was present at 100 nM and phosphorylated LCK kinase was present at 50 nM. Assays were performed under initial rate conditions at 37° C., and rates were corrected for any background rate measured in the absence of enzyme. Percent inhibition was calculated relative to control enzyme assayed in the presence of 2% (v/v) DMSO.

The next assay deals with CDK4/cyclin D3 (Homo sapiens, UniProt P11802). Briefly: Inhibition of CDK4/Cyclin D Retinoblastoma Kinase Activity. As to conditions: apparent Ki. An outline of the steps: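 Human CDK4/cyclin D3 (full-length or cyclin D3 1–264), insect-cell expressed, at 5 or 50 nM with His-tagged Rb 386–928 substrate, 25 μM ATP plus [32P/33P]ATP, pH 7.4, 2% DMSO, 30 °C for 20 min; tight binders used 5 nM enzyme for 60 min. Filter-captured phospho-Rb quantified by phosphorimager. Apparent Ki from competitive or tight-binding inhibition fits.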
CDK4/cyclin D3, sequence (P11802 2-303 limits assumed): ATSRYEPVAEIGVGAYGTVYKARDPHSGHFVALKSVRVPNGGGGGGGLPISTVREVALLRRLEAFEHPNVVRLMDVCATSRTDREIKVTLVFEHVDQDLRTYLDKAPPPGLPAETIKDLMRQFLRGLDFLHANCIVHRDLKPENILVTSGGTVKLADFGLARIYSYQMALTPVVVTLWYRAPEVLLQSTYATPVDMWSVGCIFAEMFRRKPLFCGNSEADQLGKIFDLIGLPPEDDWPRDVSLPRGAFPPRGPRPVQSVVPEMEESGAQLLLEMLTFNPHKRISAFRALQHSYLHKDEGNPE
CDK4/cyclin D3, sequence (P30281 1-264 limits assumed, further chain): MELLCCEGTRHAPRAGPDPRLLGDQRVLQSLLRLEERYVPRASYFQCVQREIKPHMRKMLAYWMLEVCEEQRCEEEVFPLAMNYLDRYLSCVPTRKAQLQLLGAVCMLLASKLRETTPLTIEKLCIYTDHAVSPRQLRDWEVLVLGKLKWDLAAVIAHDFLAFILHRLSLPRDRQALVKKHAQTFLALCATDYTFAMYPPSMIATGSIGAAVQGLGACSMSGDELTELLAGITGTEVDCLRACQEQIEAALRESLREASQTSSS

As to `Cc1c(O)cccc1-c1ccc2[nH]nc(-c3nc4ccccc4[nH]3)c2c1` [10′, 3-[3-(1H-Benzoimidazol-2-yl)-1H-indazol-5-yl]-2-methyl-phenol], the Ki on CDK2/cyclin A was 33 nM; on CDK4/cyclin D3, 74 nM. Moreover, the inhibition at 1 µM on FGFR1 tyrosine kinase is 61%.

For the compound `Cc1c(O)cccc1-c1ccc2[nH]nc(/C=C/c3ccccc3)c2c1` [15′, 2-Methyl-3-[3-((E)-styryl)-1H-indazol-5-yl]-phenol], the Ki turned out to be 62 nM at CDK2/cyclin A and 18 nM at CDK4/cyclin D3. Moreover, the inhibition at 1 µM at FGFR1 tyrosine kinase stood at 87%.

In the case of `Fc1ccccc1-c1ccc2[nH]nc(-c3nc4ccccc4[nH]3)c2c1` [Example 6, 3-(1H-Benzoimidazol-2-yl)-5-(2-fluorophenyl)-1H-Indazole], the Ki on CDK2/cyclin A amounted to 160 nM; on CDK4/cyclin D3 it was 200 nM. The inhibition at 1 µM on FGFR1 tyrosine kinase is 53%.

Consider `C(=C\c1n[nH]c2ccc(-c3cncc4ccccc34)cc12)/c1ccccc1` [Example 16], for which the Ki at CDK2/cyclin A turned out to be 15 nM; at FGFR1 tyrosine kinase it was 1000 nM; at CDK4/cyclin D3, 35 nM.

For `OCc1cccc2[nH]c(-c3n[nH]c4ccc(-c5cncc6ccccc56)cc34)nc12` [Example 29, [2-(5-Isoquinolin-4-yl-1H-indazol-3-yl)-1H-benzoimidazol-4-yl]-methanol], the Ki was 0.47 nM at CDK2/cyclin A, 2200 nM at FGFR1 tyrosine kinase and 7.7 nM on CDK4/cyclin D3.

On to `CN(C)Cc1cccc2[nH]c(-c3n[nH]c4ccc(-c5cncc6ccccc56)cc34)nc12` [Example 31, [2-(5-Isoquinolin-4-yl-1H-indazol-3-yl)-1H-benzoimidazol-4-ylmethyl]-dimethyl-amine], for which the Ki at CDK2/cyclin A stood at 0.21 nM; on CDK4/cyclin D3, 0.37 nM. On FGFR1 tyrosine kinase, the inhibition at 1 µM was 55.5%.

Take `CCN(CC)Cc1cccc2[nH]c(-c3n[nH]c4ccc(-c5cncc6ccccc56)cc34)nc12` [Example 36, Diethyl-[2-(5-isoquinolin-4-yl-1H-indazol-3-yl)-1H-benzoimidazol-4-ylmethyl]-amine]: the Ki amounted to 1 nM at CDK2/cyclin A and 2.3 nM on CDK4/cyclin D3. Further, the inhibition at 1 µM on FGFR1 tyrosine kinase came out at 55.8%.

As for `CCNCc1cccc2[nH]c(-c3n[nH]c4ccc(-c5cncc6ccccc56)cc34)nc12` [Example 37, Ethyl-[2-(5-isoquinolin-4-yl-1H-indazol-3-yl)-1H-benzoimidazol-4-ylmethyl]-amine], the Ki at CDK2/cyclin A turned out to be 0.22 nM; on CDK4/cyclin D3 it was 0.76 nM. Further, the inhibition at 1 µM on FGFR1 tyrosine kinase is 34.4%.

On to `CC(C)NCc1cccc2[nH]c(-c3n[nH]c4ccc(-c5cncc6ccccc56)cc34)nc12` [Example 38, Isopropyl-[2-(5-isoquinolin-4-yl-1H-indazol-3-yl)-1H-benzoimidazol-4-ylmethyl]-amine], for which the Ki is 1 nM at CDK2/cyclin A and 0.798 nM at CDK4/cyclin D3. For the same compound, the inhibition at 1 µM on FGFR1 tyrosine kinase stood at 42.4%.

On to `CCc1cncc(-c2ccc3[nH]nc(/C=C/c4ccccc4)c3c2)c1Cl` [Example 46, 5-(4-Chloro-5-ethyl-pyridin-3-yl)-3-(E)-styryl-1H-indazole], for which the Ki is 28 nM at CDK2/cyclin A and 30 nM at CDK4/cyclin D3. In addition, at FGFR1 tyrosine kinase, the inhibition at 1 µM amounted to 50.5%.

Regarding `c1ccc2[nH]c(-c3n[nH]c4ccc(-c5cccc6[nH]ccc56)cc34)nc2c1` [Example 48, 3-(1H-Benzoimidazol-2-yl)-5-(1H-indol-4-yl)-1H-indazole], the Ki worked out at 55 nM on CDK2/cyclin A and 21 nM on CDK4/cyclin D3. In addition, at FGFR1 tyrosine kinase, the inhibition at 1 µM is 68.5%.

`Clc1ccncc1-c1ccc2[nH]nc(-c3nc4ccccc4[nH]3)c2c1` [Example 52, 3-(1H-Benzoimidazol-2-yl)-5-(4-chloro-pyridin-3-yl)-1H-indazole]: the Ki is 2.6 nM at CDK2/cyclin A and 3.5 nM on CDK4/cyclin D3. The inhibition at 1 µM on FGFR1 tyrosine kinase was 55%.

As to `Cc1c(-c2ccncc2)cncc1-c1ccc2[nH]nc(-c3nc4ccccc4[nH]3)c2c1` [Example 53, 5-[3-(1H-Benzoimidazol-2-yl)-1H-indazol-5-yl]-4-methyl-[3,4′]bipyridinyl], the values for the Ki at CDK2/cyclin A and on CDK4/cyclin D3 were 0.29 nM and 2.6 nM, respectively. Further, at FGFR1 tyrosine kinase, the inhibition at 1 µM amounted to 32%.

In the case of `c1ccc2[nH]c(-c3n[nH]c4ccc(-c5cncc6c5CCCN6)cc34)nc2c1` [Example 54], the Ki came out at 0.27 nM at CDK2/cyclin A and 26 nM at CDK4/cyclin D3. In addition, the inhibition at 1 µM on FGFR1 tyrosine kinase is 81.5%.

Regarding `O=C(Nc1cccc2c(-c3ccc4[nH]nc(-c5nc6ccccc6[nH]5)c4c3)cncc12)c1cccnc1` [Example 55, N-{4-[3-(1H-Benzoimidazol-2-yl)-1H-indazol-5-yl]-isoquinolin-8-yl}-nicotinamide], the values for the Ki at CDK2/cyclin A and on CDK4/cyclin D3 were 1.1 nM and 41 nM, respectively. The inhibition at 1 µM on FGFR1 tyrosine kinase worked out at 83.6%.

Take `Cc1c(-c2cccnc2)cncc1-c1ccc2[nH]nc(-c3nc4ccccc4[nH]3)c2c1` [Example 58]: the Ki at CDK2/cyclin A came out at 1 nM; at FGFR1 tyrosine kinase, 3000 nM; at CDK4/cyclin D3, 6.7 nM. Further, the inhibition at 1 µM at FGFR1 tyrosine kinase turned out to be 20.3%.

Consider `Cc1c(/C=C/CO)cncc1-c1ccc2[nH]nc(-c3nc4ccccc4[nH]3)c2c1` [Example 59, (E)-3-{5-[3-(1H-Benzoimidazol-2-yl)-1H-indazol-5-yl]-4-methyl-pyridin-3-yl}-prop-2-en-1-ol], for which the Ki is 0.58 nM on CDK2/cyclin A and 1.6 nM on CDK4/cyclin D3. In addition, on FGFR1 tyrosine kinase, the inhibition at 1 µM came to 47.6%.

In the case of `Cc1c(CCCO)cncc1-c1ccc2[nH]nc(-c3nc4ccccc4[nH]3)c2c1` [Example 60, (E)-3-{5-[3-(1H-Benzoimidazol-2-yl)-1H-indazol-5-yl]-4-methyl-pyridin-3-yl}-propan-1-ol], the results for the Ki at CDK2/cyclin A and at CDK4/cyclin D3 were 0.6 nM and 1.6 nM, respectively. Also, the inhibition at 1 µM on FGFR1 tyrosine kinase came to 40.8%.

Consider `CCc1c(-c2ccncc2)cncc1-c1ccc2[nH]nc(-c3nc4ccccc4[nH]3)c2c1` [Example 61, 5-[3-(1H-Benzoimidazol-2yl)-1H-indazol-5-yl]-4ethyl-[3,4′]bipyridinyl], for which the Ki was 1.2 nM on CDK2/cyclin A, 480 nM at FGFR1 tyrosine kinase and 17 nM on CDK4/cyclin D3. Further, the inhibition at 1 µM at FGFR1 tyrosine kinase stood at 60.7%.

For `Cc1c(-c2cccc(CO)c2)cncc1-c1ccc2[nH]nc(-c3nc4ccccc4[nH]3)c2c1` [Example 69, (3-{5-[3-(1H-Benzoimidazol-2-yl)-1H-indazol-5-yl]-4-methyl-pyridin-3-yl}-phenyl)-methanol], the Ki at CDK2/cyclin A amounted to 4.1 nM; on CDK4/cyclin D3 it was 15 nM. Also, the inhibition at 1 µM at FGFR1 tyrosine kinase was 25.6%.

For the compound `CS(=O)(=O)Nc1ccc2nc(-c3n[nH]c4ccc(-c5cncc6ccccc56)cc34)[nH]c2c1` [Example 70, N-[2-(5-Isoquinolin-4-yl-1H-indazol-3-yl)-3H-benzoimidazol-5-yl]-methanesulfonamide], the Ki at CDK2/cyclin A stood at 0.23 nM; at CDK4/cyclin D3, 1.8 nM. Also, the inhibition at 1 µM at FGFR1 tyrosine kinase amounted to 63%.

On to `Cc1c(-c2ccncc2)cncc1-c1ccc2[nH]nc(-c3nc4ccc(NS(C)(=O)=O)cc4[nH]3)c2c1` [Example 71, N-{2-[5-(4-methyl-[3,4′]bipyridinyl-5-yl)-1H-indazol-3-yl)-3H-benzoimidazol-5-yl]-methanesulfonamide], for which the Ki stood at 1 nM on CDK2/cyclin A and 0.85 nM on CDK4/cyclin D3. For the same compound, the inhibition at 1 µM at FGFR1 tyrosine kinase was determined as 28.8%.

Consider `Cc1c(CO)cncc1-c1ccc2[nH]nc(-c3nc4ccccc4[nH]3)c2c1` [Example 72, {5-[3-(1H-Benzoimidazol-2-yl)-1H-indazol-5-yl]-4-methyl-pyridin-3-yl}-methanol], for which the Ki on CDK2/cyclin A amounted to 7.6 nM; at CDK4/cyclin D3, 12 nM. Also, the inhibition at 1 µM at FGFR1 tyrosine kinase came out at 48.6%.

For `Cc1c(CN(C)C)cncc1-c1ccc2[nH]nc(-c3nc4ccccc4[nH]3)c2c1` [Example 73, {5-[3-(1H-Benzoimidazol-2-yl)-1H-indazol-5-yl]-4-methyl-pyridin-3-ylmethyl}-dimethyl-amine], the results for the Ki at CDK2/cyclin A and at CDK4/cyclin D3 were 2.7 nM and 6.9 nM, respectively. On FGFR1 tyrosine kinase, the inhibition at 1 µM stood at 42.9%.
